# Patent US4608365A, “Treatment of neurologic functions” (priority 1984, dated 1986)
# How the values were obtained:
# ALS patients [1] = format: in vivo, human
# Description: Nine fasting ALS patients (seven men, and two women; duration of disease, two, three, five-sixths of a year, five-sixths of a year, two and a half, four, one, one and four years, respectively) were given intravenous TRH at rates of 0.5-8 mg/minute, total 500 mg during two to five hours in one day, for one or two days. Due to the fact that the effects during the second day resembled those on the first day in the first two patients (men) and because supplies of TRH were limited, […] were treated for one day only. Before and throughout TRH administration, motor functions were repeatedly examined, the tests being selected according to the specific clinical involvement in each patient. Testing in all patients was videotaped. […] For example, muscles (such as biceps, triceps, deltoid, iliopsoas, or peroneal) that could be overcome easily by one finger before TRH administration became completely resistant to the full force of the examiner's hand (i.e., became normal or virtually normal). In one person, thumb abduction and finger-thumb pincer movement, easily overcome before the infusion of TRH, became normal. […] Speech clarity and volume improved. Spasticity of the legs lessened, as evidenced by easier, more rapid and "looser" bicycling-like movement, heel-shin movement and heel-knee tapping of the legs, as well as more agile walking.
# As an extension of the Example III and IV studies, a total of twenty-three patients (including those of Examples II and IV) were given 156 intravenous dose-days total.
# (§1) There were several control aspects of the TRH studies. […] The patients given subcutaneous TRH had treatments interspersed with saline placebo injections. […] The time course of response was not known before the study and, in fact, it was expected that the onset would be later and the duration of response longer than was actually found. Different patients responded to different doses of TRH, and the sex difference in response (woman apparently less responsive) was not expected. […] There were three observers, one unaware of the infusion status. In addition, clinical examinations of all patients of Examples III-VII were videotaped and later reviewed by several observers.
# [2] = test system: tissue-cultured fetal rat lower motor neurons; experiment: Trophic-like effect on tissue-cultured fetal rat lower motor neurons (cholineactyltransferase); format: cell-based; settings: chronic
# Text: "Transmitter-like," as used herein, includes not only direct excitatory (or facilitatory) and inhibitory actions on the lower motor neurons, but also any action on lower motor neurons or afferents thereto that results indirectly in such an effect. That excitatory TRH action, increasing patients' strength, is either directly excitatory or facilitatory and perhaps analogous to the lower motor neuron facilitation of glutamate excitation noted with TRH micropipetted into spinal cords of normal amphibia (Nicoll, J. Pharmac. Exp. Therap. 1978; 207: 817-24; Phillis et al., Can. J. Physiol. Pharmacol. 1979; 57: 887-99 and rodents, White Abstr. Soc. Neurosci 1983, 9: 714, and in other animal studies. An inhibitory transmitter-like action seems likely to underlie both the rapid-onset autorefractory phenomenon and the possibly related clinical reduction of spasticity, spasms and cramps. A tachyphalaxis or desensitization phenomenon, perhaps similar to the clinical autorefractory state, has been noted in animal lower motor neurons with larger amounts of TRH micropipetted into the spinal cord (Nicoll and Phillis, et al., supra).
# ALS patients [3] = format: in vivo, human; remark: listed apart in the source
# Description: As shown in Examples I-V, intravenous infusion of thyrotropin-releasing hormone improves weakness and spasticity from lower motor neuron and upper motor neuron involvement in patients with amyotrophic lateral sclerosis and proximal spinal muscular atrophy. In an additional study, forty-one ALS patients were treated with 461 days of subcutaneous TRH administered 75-150 mg once daily or 75 mg twice daily. The subcutaneous doses were sometimes administered by patients or spouses. Included were all forms of ALS, and all patients were videotaped pre- and post-treatment. […] Saline injections produced no responses. The previously-noted lesser benefit and side-effects in females was less evident.
# Benefit and side-effects of TRH administered subcutaneously were qualitatively and quantitatively similar to those of intravenous TRH described in Examples III and IV. […] Response times were somewhat different.
# as §1
# In each of the foregoing Examples, the TRH was administered in a normal saline solution containing 100 mg/ml of TRH. The pH of the solution was not adjusted. This particular carrier and strength was selected for its ready availability, the convenience in calculating dosages administered and its similarity to the placebo solution, and additional carriers may be employed as desired. Timed-release carriers would be particularly advantageous, and are within the scope of the invention.
# [4] = test system: non-ALS person with chronic juvenile proximal spinal muscular atrophy; format: in vivo, human
smiles,measurement,setting,value
"NC(=O)[C@@H]1CCCN1C(=O)[C@H](Cc1cnc[nH]1)NC(=O)[C@@H]1CCC(=O)N1 [TRH, L-pyroglutamyl-L-histidyl-L-prolinamide]",intravenous rate at which striking improvement was shown,ALS patients [1]; Examples II and III (summary),2 mg/min
same,minimum intravenous infusion rate per body weight,ALS patients [1]; based on average patient weight of 70 kilograms,≥ 14.3 μg/minute/kg of body weight
same,benefit and side-effects in the two women,ALS patients [1]; i.v. 0.5-8 mg/minute,much less benefit and many fewer side-effects than the men
same,quantitative response of women relative to men,ALS patients [1]; i.v. 0.5-8 mg/minute,resembled those of men on one-half to one-fourth of the TRH dosage
same,ankle clonus,ALS patients [1]; i.v. 2-8 mg/minute,decreased or disappeared
same,brisk tendon reflexes,ALS patients [1]; i.v. 2-8 mg/minute,diminished not at all or only slightly
same,extensor plantar (Babinski) responses,ALS patients [1]; i.v. 2-8 mg/minute,"improved, becoming neutral or normal flexor"
same,fasciculations,ALS patients [1]; i.v. 2-8 mg/minute,appeared to be unchanged
same,spasticity of the legs,ALS patients [1]; i.v. 2-8 mg/minute,lessened
same,speech clarity and volume,ALS patients [1]; i.v. 2-8 mg/minute,improved
same,vital capacity,ALS patients [1]; i.v. 2-8 mg/minute,"increased, by as much as one liter"
same,residual improvement after the end of the infusion,"ALS patients [1]; i.v., total 500 mg",some slight improvement still evident twenty hours after the end of the infusion
same,time improvements were sustained after the infusion,"ALS patients [1]; i.v., total 500 mg during two to five hours",one-half to one hour afterwards
same,improvement of muscle weakness and spasticity,"ALS patients [1]; men, i.v. 2-8 mg/minute, in some areas of involvement",striking improvement
same,duration of full benefit after intravenous infusions,ALS patients [1]; summary,up to one hour
same,enhancement of cholineactyltransferase,[2],17 fold
same,improvement in neurologic deficits from hypofunction of lower and upper motor neurons,"ALS patients [3]; ALS and other patients, therapeutic amounts (summary of all studies)",moderate to excellent improvement
same,muscle strength in retreated female non-responder of Example II,"ALS patients [3]; a few months later, evaluated in more detail",slight but definite improvement of muscle strength
same,"effect on mood, alertness, excitation, appetite or sleep","ALS patients [3]; human, in vivo",no noticeable effect
same,new side effects,"ALS patients [3]; human, in vivo",very transient taste noted within a few minutes; asthmatic phenomena lasting about five minutes during maximal shivering in two patients with a history of asthma
same,strength and head tremor in one patient with hereditary ALS,"ALS patients [3]; human, in vivo",improvement in strength and also improvement in a co-existing head tremor
same,"transient shivering, onset and end","ALS patients [3]; human, in vivo, sc",beginning at three to ten minutes and lasting until thirty to sixty minutes
same,neuromuscular stamina,ALS patients [3]; s.c.,clearly increased
same,"painful muscle cramps, spasms, spontaneous clonus and stiffness",ALS patients [3]; s.c.,eliminated or lessened for several days in all patients having them
same,painful spontaneous flexor withdrawal reflexes,ALS patients [3]; s.c.,remained eliminated for at least twelve days in some instances
same,swallowing,ALS patients [3]; s.c.,"increased, eliminating choking on food and saliva accumulation in the mouth"
same,"time benefits in strength, cramps, spasticity and clonus often endured undiminished",ALS patients [3]; s.c.,twenty-four hours
same,time to maximal increased strength,ALS patients [3]; s.c.,one-and-a-half to two minutes
same,improvement,ALS patients [3]; s.c. 150 mg once daily or 75 mg twice daily (summary),similarly striking improvement
same,response,"ALS patients [3]; s.c. 75-150 mg once daily or 75 mg twice daily, forty-one ALS patients, 461 days",beneficial responses
same,stair climbing,"ALS patients [3]; s.c., many patients",eleven flights of stairs (compared to two with difficulty before TRH)
same,aching of shoulder and hip joints,"ALS patients [3]; s.c., severe ALS",temporarily reduced or abolished for at least one to three days
same,recovery of lost abilities,"ALS patients [3]; s.c., some patients",regained abilities that had been lost for six to twelve months
same,"spasticity, clonus and muscle cramps","ALS patients [3]; s.c., when shivering diminished or one to three hours thereafter",improved from their before-treatment status or completely abolished or absent
same,subcutaneous dose required per body weight,ALS patients [3]; single injection,≥ 0.71 mg/kg of body weight
same,subcutaneous dose required,"ALS patients [3]; single injection once, or similar amount twice-a-day",at least 50 mg
same,muscle strength,"[4]; 1-8 mg/minute i.v., 500 mg total, several muscle functions",slight to moderate improvement of strength
same,sensitivity to TRH relative to the men,[4]; i.v.,one-fourth to one-eighth as sensitive
same,intravenous rate at which an acute increase in strength occurred,[4]; printed as Example IV (summary),4.7 mg/min
